One test has as its system GLP1. The conditions noted are these: blood of treated OB/IR rats; other studies in our laboratory (Louw et al. 2008); cited from earlier work.
A further test relates to Chang cells. The experiment in a line: 2-deoxy-[3H]-D-glucose uptake assay. The class given is cell-based. The conditions noted are these: Chang cell cultures, 3 hrs exposure. The protocol: The glucose uptake of RX-1 and selected analogues after administration of test compounds to Chang cell cultures were determined in an operating protocol for the 2-deoxy-[^3H]-D-glucose. The protocol, which is described in more detail below, has been designed to test for the RX-1 (and RX-1 analogues) mediated glucose uptake. In Table the EC50 values for the uptake for RX-1 and representative analogues is shown.
Stock solutions of the RX-1 analogues supplied in cryo vials (DrugMode) was prepared by diluting the compound with […] sterile tissue culture grade water. This will yield a 5 mM stock solution. If the analogue […] an additional 50 μl methanol will be added (this will be recorded clearly on the log sheet). This will yield a 4 mM stock solution. Stock solutions will be kept on ice at all times and analogues will be stored in 20 μl aliquots at −80 C for subsequent use. Tubes that have been thawed will be clearly marked on the label.
RX-1 (10 μM) Positive Control Solution • To prepare a 10 μM RX-1 solution as positive control. Add 30 μl to 2970 μl modified DMEM media supplemented with 8 mM glucose.
RX-1 Analogue (31.6 μM) Test Solutions • To prepare a 31.6 μM RX-1 analogue test solution. Add 19 μl of the 5 mM to 2981 μl modified DMEM media supplemented with 8 mM glucose. To prepare a 31.6 μM RX-1 analogue test solution from a 4 mM stock solution, add 24 μl to 2976 μl modified DMEM media supplemented with 8 mM glucose.
Cell Seeding in 24-Well Plates • Chang cells are cultured according to procedures described in MRC cell culture SOPs: TC-B2a Thawing of cells and TC-B1a Cell line maintenance—general principles. Make sure cells are in the log phase (i.e. <70% confluence) and less than 20 passages. • Harvest cells using 0.25% (w/v) Trypsin/0.53 mM EDTA solution. • Count cells and resuspend to 30 000 cells/ml (Chang cell seeding density for 24-well plate=30 000 cells/ml) in EMEM (with pyruvate and NEAA, but without L-glutamate (Lonza, USA) containing 10% FBS (Gibco, UK) and pipette 1 ml/well cell suspension to a 24-well plate corresponding to 30 000 cells/well.
• after 3 days of cell growth, aspirate medium • wash cells once with pre-warmed DPBS at 37° C. • add 500 μl of pre-warmed 37° C. DMEM/0.1% BSA (without phenol red, glucose and pyruvate) to serum starve cells to remove residual glucose and FBS • incubate at 37° C. in humidified air and 5% CO2 for 30 min • aspirate DMEM/0.1% BSA (without phenol red, glucose and pyruvate) • Prepare test dilutions as specified in the plate layout (see below) • add 500 μl pre-warmed 37° C. of test dilution per well according to plate layout • incubate at 37° C. in humidified air and 5% CO2 for 3 hrs • remove test medium and wash cells once with DPBS (37° C.) • add 250 μl of test medium containing 0.5 μCi/ml ^3H-2-DOG to each well use (0.5 μl ^3H to 1 ml medium) • Incubate cells at 37° C. in humidified air and 5% CO2 for 15 min • Aspirate medium • To stop the reaction, wash cells twice with ice-cold DPBS • Aspirate DPBS and ensure that wells are as dry as possible • Lyse cells by adding 1 ml of 0.3N NaOH/1% SDS and incubate at 37° C. for at least 45 min • Mix cell lysate thoroughly before subsequent use in LSC and Bradford protein determination

Test [1] concerns glucose stimulated insulin secretion. The experiment in a line: Glucose stimulated insulin secretion rate AUC in prediabetic vervet monkeys (FIG. 2). The conditions noted are these: versus untreated. The class given is in vivo. Here is the method:
Prediabetic vervet monkeys (fasting plasma glucose levels between 4.0 and 5.5 mM) were treated with 10 ug/kg RX-1 3 times daily with meals for 7 days. Blood samples were collected following 1.75 g/kg oral glucose stimulation at 0, 5, 10, 15, 30, 60, 90, 120 and 180 minutes. AUC values calculated mean glucose stimulated insulin secretion values over the time interval 0-120 min. Four monkeys were used in each group (untreated, RX1-treated).

Turning to `O=C(O)/C(=C/c1ccccc1)O[C@@H]1O[C@H](CO)[C@@H](O)[C@H](O)[C@H]1O` [RX-1, 3-Phenyl-2-(3,4,5-trihydroxy-6-hydroxymethyl-tetrahydro-pyran-2-yloxy)-acrylic acid], the “circulating GLP1 levels” value in the test with GLP1 is recorded as “increased”. In addition, the EC50 (usually the concentration that produces a half-maximal response) in the test on Chang cells turned out to be 3.22 µM. The glycaemic control entry in test [1] (10 ug/kg 3 times daily for 7 days) was “better glycaemic control”. Also, the “decrease of glucose stimulated insulin secretion (AUC 0-120 min)” value in test [1] (10 ug/kg 3 times daily with meals for 7 days, 1.75 g/kg oral glucose stimulation, FIG. 2) was found to be 46%.

The values above are taken from patent US10174065B2, “Antidiabetic enolic glucoside of phenylpyruvic acid” (ZADEC APS, priority 2010, dated 2019).
